Source: patent US9346781B2, “Therapeutic compounds” (UNIVERSITY OF IOWA RESEARCH FOUNDATION, priority 2012, dated 2016)

Assays:
MEL624 = assay: MTT cell viability assay, MEL624; format: cell-based; settings: 72 hours, read-out: IC50 (nM), antiproliferative effect
Description: (§1) FIG. 1 Illustrates results generated when HT29, A375SM, MEL624, SK-MEL-2, H1299, HCT116, Raji, HL60 and MDA-MB231 cells were treated with log-scale serial diluted concentrations of truncated superstolide A (Compound 3) from 1 to 3000 nM for 72 hours and the effect of truncated superstolide A on cell death was measured by performing a MTT assay.
(§2) Cell Viability Assay: The antiproliferative effect of compound 3 was determined by performing 3-(4,5-dimethylthiazol-2-yl)-2,5-diphenyltetrazolim (MTT) assay. Briefly, cancer cells at varying concentrations—2,000 cells/well (A375SM, MEL624 and SK-MEL-2,) and 5,000 cells/well (HT29, H1299, and HCT116, Raji, and HL-60)—were seeded onto a 96-well plate in triplicates. […] At the end of the 72 hours period, cells were treated with the MTT reagent (Sigma-Aldrich, M O) and the antiproliferative effect of compound 3 was measured as previously described (Zhou Y, Achanta G, Pelicano H, Gandhi V, Plunkett W, and Huang P (2002). Molecular Pharmacology 61:222-229). […]
(§3) The antiproliferative effect of compound 3 was evaluated in two human colon carcinoma cell lines (HT29, HCT116), three malignant melanoma cell lines (A375SM, MEL624, and SK-MEL-2), one human non-small cell lung carcinoma cell line (H1299), one lymphoma cell line (Raji), one leukemia cell line (HL-60), and one malignant breast cancer cell line (MDA-MB231) using MTT assay. […]

HCT116 = assay: MTT cell viability assay, HCT116; format: cell-based; settings: Homo sapiens, HCT-116, 72 hours, read-out: IC50 (nM), antiproliferative effect
Description: as §1, §2, §3

[1] = system: the other eight tested cell lines; assay: MTT cell viability assay, other eight tested cell lines (summary); format: cell-based; settings: Homo sapiens; the other eight tested cell lines (all but HT-29); read-out: IC50 in suppressing tumor cell proliferation
Description: Cell Viability Assay: The antiproliferative effect of compound 3 was determined by performing 3-(4,5-dimethylthiazol-2-yl)-2,5-diphenyltetrazolim (MTT) assay. Briefly, cancer cells at varying concentrations—2,000 cells/well (A375SM, MEL624 and SK-MEL-2,) and 5,000 cells/well (HT29, H1299, and HCT116, Raji, and HL-60)—were seeded onto a 96-well plate in triplicates. Following an overnight incubation, the cells were treated with log-scale serially increasing concentrations of compound 3 for 72 hours at 37° C. At the end of the 72 hours period, cells were treated with the MTT reagent (Sigma-Aldrich, M O) and the antiproliferative effect of compound 3 was measured as previously described (Zhou Y, Achanta G, Pelicano H, Gandhi V, Plunkett W, and Huang P (2002). Molecular Pharmacology 61:222-229). The IC50 values correspond to a concentration of compound 3 that inhibits cell viability by 50%.
The antiproliferative effect of compound 3 was evaluated in two human colon carcinoma cell lines (HT29, HCT116), three malignant melanoma cell lines (A375SM, MEL624, and SK-MEL-2), one human non-small cell lung carcinoma cell line (H1299), one lymphoma cell line (Raji), one leukemia cell line (HL-60), and one malignant breast cancer cell line (MDA-MB231) using MTT assay. The data (MTT curves and IC50 tables) are shown in FIG. 1 and in the following Table 1.

H1299 = assay: MTT cell viability assay, H1299; format: cell-based; settings: Homo sapiens, NCI-H1299, 72 hours, read-out: IC50 (nM), antiproliferative effect
Description: as §1, §2, §3

Raji = assay: MTT cell viability assay, Raji; format: cell-based; settings: Homo sapiens, 72 hours, read-out: IC50 (nM), antiproliferative effect
Description: as §1, §2, §3

HL60 = assay: MTT cell viability assay, HL60; format: cell-based; settings: Homo sapiens, HL-60, 72 hours, read-out: IC50 (nM), antiproliferative effect
Description: as §1, §2, §3

SK-MEL-2 = assay: MTT cell viability assay, SK-MEL-2; format: cell-based; settings: Homo sapiens, 72 hours, read-out: IC50 (nM), antiproliferative effect
Description: as §1, §2, §3

A375SM = assay: MTT cell viability assay, A375SM; format: cell-based; settings: Homo sapiens, A375-SM, 72 hours, read-out: IC50 (nM), antiproliferative effect
Description: as §1, §2, §3

MDA-MB231 = assay: MTT cell viability assay, MDA-MB231; format: cell-based; settings: Homo sapiens, MDA-MB-231, 72 hours, read-out: IC50 (nM), antiproliferative effect
Description: as §1, §2, §3

NCI-60 cell assay = assay: NCI-60 cell assay; format: cell-based; settings: leukemia, non-small cell lung cancer, colon cancer, CNS cancer, melanoma, ovarian cancer, renal cancer, prostate cancer, breast cancer
HT29 = assay: MTT cell viability assay, HT29; format: cell-based, human
Description: as §1, §2, §3

HT-29 cell = settings: read-out: IC50, antiproliferative effect; cited from earlier work

CC(=O)N[C@H](C)[C@@H](O)[C@@H](C)[C@@H]1OC(=O)/C=C/C=C(C)\C=C\[C@]2(C)CCC=C[C@@H]2/C=C(C)/C=C/[C@H]1C [Compound 3]
IC50 (MEL624): 53.1 nM
IC50 (HCT116): 52.7 nM
IC50 [1]: 10 to 70 nM
IC50 (H1299): 56.8 nM
IC50 (Raji): 76.7 nM
IC50 (HL60): 11.8 nM
IC50 (SK-MEL-2): 63.8 nM
IC50 (A375SM): 36.5 nM
IC50 (MDA-MB231): 18 nM
activity in NCI-60 cell assay (NCI-60 cell assay): active
potency in suppressing tumor cell proliferation relative to superstolide A (HT29; HT-29 cell, versus parent natural product superstolide A): about seven times more potent
IC50 (HT29; Homo sapiens, HT-29, HT29, 72 hours, MTT assay, read-out: IC50 (nM), antiproliferative effect): 7.54 nM

superstolide A
IC50 (HT-29 cell): 64 nM
